Laboratory results taken from patent US20190030113A1, “DIPEPTIDYL ALDEHYDES FOR THE TREATMENT AND/OR PREVENTION OF PARASITIC DISEASES” (AXIAVA PHARMA UG, priority 2017, published 2019).
Residues, ends and D or L forms follow the SMILES beside them. *: point of attachment. Cbz = O=C(OCc1ccccc1)*; tBu = CC(C)(C)*

How the values were obtained:
[1] = target: cathepsin L (Homo sapiens, UniProt P07711); conditions: cited from earlier work
[2] = system: T. gallinae; assay: in vitro growth of T. gallinae (total trophozoite number); format: cell-based, Trichomonas gallinae; conditions: 10,000 nM, after 24 hours of treatment, normalized to 1% DMSO-treated group NCA
Method: (§1) Z—FY—CHO was tested in an in vitro assay on growth and viability of two strains of T. gallinae (Vienna strain and ATCC 30095). T. gallinae is cultured in vitro under axenic conditions. Both strains are cultured in ATCC® Medium 2154 (LYI Entamoeba medium) which is prepared according to the recommendations of ATCC. Culture conditions are anaerobic at 37° C. Cultures are kept in sterile 50 ml plastic tubes in a total volume of 10 ml. T. gallinae cultures are passaged regularly (in two-day intervals) in advance to maintain the strains for the study.
Quantification of total parasite number: The total parasite number is calculated separately for each tube. Therefore, the contents of each tube are centrifuged and the sediment resuspended in a given volume. A dilution of a subsample is being examined in a Neubauer counting chamber, the total number of parasites counted and the number of parasites in the respective tube be calculated.
Each treatment group consists of 3 identical replicates, i.e. 3 tubes with identical treatment (triplicate).
(§2) Five concentrations of each substance were tested against T. gallinae, namely 1 nM, 10 nM, 100 nM, 1000 nM, and 10000 nM. The total exposure time of the test compounds for the efficacy assay was 72 hours; media were renewed in intervals of 24 hours. Efficacy was measured after 24 hours of incubation.

[3] = system: T. gallinae; assay: in vitro viability of T. gallinae (viable-to-dead ratio, DAPI staining); format: cell-based, Trichomonas gallinae; conditions: different concentrations; after 24 hours of treatment
Method: as §1, §2
The total parasite number is calculated before a subsample is subject to counting of viable and dead parasites. For counting, parasites are stained by DAPI nucleus staining for differentiation of viable and dead parasites.

[4] = system: T. gallinae cultured from the Vienna strain; assay: in vivo efficacy study in pigeons inoculated with T. gallinae; parameters: species or system Columba livia forma domestica; conditions: 5 mg/kg oral twice daily during 4 days, 15 birds per group
Method: (§3) Thirty Columba livia forma domestica of both gender (2 groups of fifteen birds) were inoculated per os via a syringe with 2 million T. gallinae cultured from the Vienna strain. Initial age of the pigeons was 4-5 months. Two days later the pigeons were treated with twice daily oral administration of 5 mg/kg of Z—FY—CHO or the placebo (vehicle alone) during 4 days. The formulation was composed of 50 mg of the agent added to 1.0 ml 96 g/v % ethanol and 4 gram of prewarmed Solutol HS15. The formulation was stirred to a clear solution, then it was topped up with prewarmed distilled water to a volume of 10 ml. From this solution 0.1 ml per 100 g body weight was administered (=5 mg/kg). […] Regurgitation has been detected first in one pigeon from the placebo group in the evening on day of infection. […] No gross pathological findings in the esophagus or crop were detected during the necropsy. However, heterophilic infiltrates in the mucosa as well as in the submucous tissue and lymphocytes and plasmacells in the submucous tissue have been detected histopathologically in total eight pigeons (27%). Catarrhal erosive esophagitis and ingluvitis was significant more often detected in pigeons from the placebo group (7 of 8 pigeons with inflammatory reaction of the esophagus and crop, 88%; p=0.018).

[5] = system: coccidiae; assay: coccidiosis finding in the in vivo pigeon study; parameters: species or system Columba livia forma domestica; conditions: 5 mg/kg oral twice daily during 4 days; 3 of 15 placebo pigeons still showed coccidiae
Method: as §3

[6] = side effects in the in vivo pigeon study; parameters: species or system Columba livia forma domestica; conditions: 10 mg/kg per day oral, 4 days, pigeons
Method: as §3

[7] = system: Eimeria spp.; conditions: 20 mg/kg body weight, up to 14 days before the experimental infection; on average; cited from earlier work
[8] = system: Histomonas meleagridis; conditions: 300-400 ppm, cited from earlier work

cathepsin L, sequence (P07711 114-333, species assumed): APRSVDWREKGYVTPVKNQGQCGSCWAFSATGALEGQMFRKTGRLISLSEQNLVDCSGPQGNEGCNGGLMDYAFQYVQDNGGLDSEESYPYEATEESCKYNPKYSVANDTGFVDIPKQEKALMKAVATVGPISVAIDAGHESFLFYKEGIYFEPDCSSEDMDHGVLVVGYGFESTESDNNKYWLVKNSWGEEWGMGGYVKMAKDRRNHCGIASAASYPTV

**Q.** Which IC50 [1] does the source give for `COc1ccc(C[C@@H](C=O)NC(=O)[C@H](Cc2ccccc2)NC(=O)OCc2ccccc2)cc1` [e, Z-Phe-Tyr(Me)-CHO] (Cbz-Phe-Tyr(Me)-aldehyde) here?
**A.** Its IC50 is 2.95 nM.

**Q.** With `CC(C)C[C@@H](C=O)NC(=O)[C@H](Cc1ccccc1)NC(=O)OCc1ccccc1` [c, Z-Phe-Leu-CHO] (Cbz-Phe-Leu-aldehyde) as the molecule, how does the IC50 [1] read?
**A.** The IC50 was 0.78 nM.

**Q.** Which results are given for `O=C[C@H](Cc1ccc(O)cc1)NC(=O)[C@H](Cc1ccccc1)NC(=O)OCc1ccccc1` [b, N-(benzyloxycarbonyl)-L-phenylalanyl-L-tyrosinal] (Cbz-Phe-Tyr-aldehyde)?
**A.** trophozoite number relative to group NCA (control group) ([2]; ATCC 30095 strain): 26.3%; trophozoite number relative to group NCA (control group) ([2]; Vienna strain): 24.0%; viable-to-dead ratios compared to the control group NCA [3]: Markedly lower; pigeons with regurgitation ([4]; placebo 7 of 15, p=0.018): one; pigeons with catarrhal erosive esophagitis and ingluvitis (histopathology) ([4]; placebo 7 pigeons, p=0.018): one; detection of coccidiae after treatment [5]: no coccidiae could be detected; side effects [6]: no obvious and/or statistically significant side effects

**Q.** With `Cc1cc(-n2c(=O)[nH]c(=O)n(C)c2=O)ccc1Oc1ccc(SC(F)(F)F)cc1` [toltrazuril] as the molecule, how does the “reduction in the number of oocysts in individual fecal samples” value [7] read?
**A.** The value was “more than 97%”.

**Q.** With `CC(C)(C)Oc1ccc(CC(C=O)NC(=O)C(Cc2ccccc2)NC(=O)OCc2ccccc2)cc1` (stereo not drawn) [f, Z-Phe-Tyr(Bu)-CHO] (Cbz-Phe-Tyr(tBu)-aldehyde; configuration not given here) as the molecule, how does the IC50 [1] read?
**A.** Its IC50 is 6.96 nM.

**Q.** For `O=C[C@H](Cc1ccccc1)NC(=O)[C@H](Cc1ccccc1)NC(=O)OCc1ccccc1` [a, Z-Phe-Phe-CHO] (Cbz-Phe-Phe-aldehyde), which IC50 [1] is on record?
**A.** The IC50 was 0.74 nM.

**Q.** Which IC50 [1] does the source give for `C[C@@H](C=O)NC(=O)[C@H](Cc1ccccc1)NC(=O)OCc1ccccc1` [d, Z-Phe-Ala-CHO] here?
**A.** The IC50 was 15.5 nM.

**Q.** For `CC1CS(=O)(=O)CCN1/N=C/c1ccc([N+](=O)[O-])o1` (stereo not drawn) [Nifurtimox], which tolerability ([8]; turkeys) is on record?
**A.** Its tolerability is “tolerated by turkeys”.

**Q.** And the “efficacy (antiprotozoal)” value [8]?
**A.** Its value is “effective”.
